Test results as given in patent US7122337B2, “Method for determining calciotropic activity of a preparation of Padina pavonic algae” (Texinfine SA, priority 2001, dated 2006).

Key:
human cell line G292 = experiment: Fixing of calcium by the osteoblast cell line G292; type: cell-based; parameters: Fixed calcium, Average: unit not given here; details: for Fixing the calcium (fixed calcium): G292, Example I, controls = 1,000
Experimental: (§1) More precisely, the process according to the invention consists of preparing a suspension of a human or animal osseous cell line, by adjusting the cellular density determined by turbidimetry or by calculating from a reference value, leaving to incubate for one to three days at 37° C. in the presence of carbon dioxide and of a complete culture medium (CCM), adding to some wells an agent inhibiting the fixing of calcium or a calciotropic hormone, and some extract to be titrated, eliminating the supernatants from the culture, rinsing out the wells with a rinsing medium without calcium or magnesium (P.B.S. for example) in such a way as to eliminate the non-fixed calcium from the culture medium, eliminating the supernatant fractions, and adjusting the volume of the dispersion with a fixed volume of mineral acid such as hydrochloric acid, sulphuric acid, phosphoric acid or perchloric acid or with any other product capable of destroying the extracellular matrix built up by the cells being cultured. […] NT-690.005.
(§2) The material to be tested is dosed on a cell culture. An analysis is carried out of the calcium fixed by the osseous cells. To do this, the calcium fixed by an osteoblastic cell line is dosed. In a non-limiting way, UMR 106 and G292, in the presence or not of deleterious agents such as the Inh-Ca and the IL-1 may be cited. The preparation to be analysed will also itself be tested, on the same cell line in the presence or not of agents such as Inh-Ca and IL-1.
In these same conditions, calcium fixed by the same cell line in the presence of estradiol is dosed and a calibration scale is produced, expressed in weight of estradiol This calibration scale ranges from 10^−3 to 10^−10 mol of estradiol or more frequently between 10^−7 and 10^−9 mol of estradiol. In this way, it is possible to establish a correlation between the activity of the extract of Padina and an active quantity of estradiol. We should stress that this comparison is made between the activity of estradiol directly on the cell culture with the active extract of Padina in the presence of deleterious agents such as an Inh-Ca or IL-1. So it is not a true weight comparison and it is proposed that the result should be expressed in Units of Activity (UA). A unit of activity is defined as the quantity of extract capable of increasing by 50% the quantity of calcium fixed by 400,000 cells cultivated for 48 hours in the presence of 1 ng of interleukin 1 per 1 ml well. The IL-1 can be replaced by another agent inhibiting the fixing of calcium at an equi-active dose.
The extracts of Padina have been described, in particular in the European patent application EP 0.655.250. The algae is then depleted after drying, by a hydrocarbonated solvent such as cyclohexane or acetone, the vegetable matter is separated, and the extracted product is filtered then evaporated until dry. A quantity of dry extract weighed precisely is then dissolved in ethanol. Determining its activity is the object of the present invention. In concrete terms, the process according to the invention consists of preparing a suspension of culture of the human cell line G292 (ECAC no. 901-110522), adjusting the cell density to 400,000 cells per ml of complete culture medium (CCM), supplemented by 10% of fetal calf serum. The cell suspension is distributed at the rate of 1 ml per well on plates of 24 wells. It is left to incubate overnight in an atmosphere of CO2 at 37°. The supernatants are separated then dilution is carried out by a new addition of CCM. An aliquot fraction of IL-1 is prepared and 5 μl of interleukin IL1 solution is added, namely 1 ng per well in the wells for the cells which receive only one inhibiting treatment per IL-1.
(§3) For each trial of solution to be titrated, 5 μl of solution of Padina extract is added. It is then left to incubate for the length of time necessary to carry out the trial, normally between 24 and 72 hours, and preferably 48 hours. […]

Osteoblasts = experiment: Fixing of calcium by osteoblasts (Example I); type: cell-based
Experimental: as §1
The extracts or powders of the algae Padina pavonica have the effect of stimulating biological activity (synthesis of proteins and glycoaminoglycanes) but also act to restore physiological functions such as the fixing of calcium by osteogenic cells. For this, the fixed calcium is dosed with a fixed cell line, such as for example the cell line UMR 106 or the line G 292, in the presence or not of deleterious agents such as inhibitors of the calcic canals and pro-inflammatory agents such as IL 1. Normal osteoblasts give good results, but their availability presents a problem. The preparation to be analysed is tested in parallel on the same cell line, in the presence or not of these same deleterious agents. The quantity of fixed calcium in relation to that obtained with the calciotropic agent and with those obtained in the presence of agents inhibiting the fixing of calcium are compared.
as §2, §3

[1] = calcic inhibitor alone, 10 μg, control 1.194
[2] = agent in the presence of IL-1, controls = 1,000

Structure (SMILES)	Fixed calcium, Average (human cell line G292; [1])	Fixing the calcium (fixed calcium) (Osteoblasts; agent alone, controls = 1,000)	Fixing the calcium (fixed calcium) (Osteoblasts; [2])	Fixing the calcium (fixed calcium) (human cell line G292; agent alone)	Fixing the calcium (fixed calcium) (human cell line G292; agent in the presence of IL-1)	Fixed calcium, Average (human cell line G292; Estradiol 10^−7 alone, control 1.194)	Fixed calcium, Average (human cell line G292; Estradiol 10^−8 alone, control 1.194)	Fixed calcium, Average (human cell line G292; Estradiol 10^−9 alone, control 1.194)	Fixed calcium, Average (human cell line G292; Estradiol + Cinchonine, control 1.194, Cinchonine 0.059)	Fixed calcium, Average (human cell line G292; Estradiol + IL-1, control 1.194, IL-1 0.315)	Fixed calcium, Average (human cell line G292; Estradiol + Verapamil, control 1.194, Verap 0.383)
C=C[C@H]1C[N@@]2CC[C@H]1C[C@@H]2[C@@H](O)c1ccnc2ccccc12 [Cinchonine]	0.059	–	–	–	–	–	–	–	–	–	–
C=C1CC[C@H](O)C/C1=C/C=C1\CCC[C@]2(C)[C@@H]([C@H](C)CCCC(C)C)CC[C@@H]12 [D3, Vitamin D3]	–	1,215	0,125	1,540	0,070	–	–	–	–	–	–
C[C@]12CC[C@@H]3c4ccc(O)cc4CC[C@H]3[C@@H]1CC[C@@H]2O [Est, Estradiol]	–	1,843	0,200	2,648	0,070	1.151	1.115	0.706	0.357	0.357	0.373
COc1ccc(CCN(C)CCCC(C#N)(c2ccc(OC)c(OC)c2)C(C)C)cc1OC (stereo not shown) [Verap, Verapamil]	0.383	–	–	–	–	–	–	–	–	–	–
